Test results as given in patent publication US20150087613A1, “Inhibition of Opioid Antinociceptive Tolerance and Withdrawal in Nociceptive Pain Therapy” (Saint Louis University, priority 2013, published 2015).

What was measured:
[1] = test system: Male Balb/c mice; experiment: Naloxone-precipitated withdrawal in morphine dependent mice; type: in vivo, mouse; conditions: IB-MECA 0.1 mg/kg with three day morphine regimen
Method: Male Balb/c mice (19-26 g) were purchased from University of Adelaide Laboratory Animal Services (Waite Campus, Adelaidem South Australia) and housed 6 per individually ventilated cage (IVC) and maintained in controlled environment (12 h light/dark cycle) with food and water available ad libitum.
A group of control mice (n=7 per strain) received an equal number of saline injections over 3 days.
EtOH was maintained at 0.02% final drug preparation. Vehicle was 0.02% EtOH in normal saline.
Immediately after the naloxone injection, animals were placed into individual Plexiglas observation cylinders (25 h×11 w cm) (Nalgene, Scoresby, VIC, Australia). Withdrawal jumping response symptoms were recorded and the frequency of jumps for each mouse was summed over 30 min. Other characteristic opioid withdrawal behaviors were also recorded such as front paw shakes and hunched/prayer postures. All testing was conducted blind to group assignment.

[2] = test system: Male Sprague Dawley rats; experiment: Rat morphine antinociceptive tolerance study (osmotic minipump, tail flick test); type: in vivo
From the text: Minipumps were filled according to manufacturer's specifications. The use of the osmotic pump ensures a continuous subcutaneously delivery of morphine avoiding intermittent periods of withdrawal. […] The integrity of the pump delivery system was reexamined at the end of each experiment when the spinal cords are harvested.
(§1) Test substances or vehicle were given on day 0 through 6 after completion of the behavioral tests.

[3] = Solubility in EtOH on preparing the dosing solution; conditions: 5 mg dissolved in 5 ml EtOH
[4] = test system: Male Sprague Dawley rats; experiment: Acute antinociceptive interaction with acute morphine (tail flick); type: in vivo, rat; conditions: IB-MECA 0.3 mg/kg i.p. 15 min before morphine 3 mg/kg i.p.
From the text: as §1

Structure (SMILES): CNC(=O)[C@H]1O[C@@H](n2cnc3c(NCc4cccc(I)c4)ncnc32)[C@H](O)[C@@H]1O [IB-MECA, N^6-(3-iodobenzyl)-adenosine-5′-N-methyluronamide]
- less naloxone-precipitated jumping vs morphine dependent mice receiving vehicle ([1]; 95% CI 1 to 17): 9 jumps/30 min
- less episodes of hunched/prayer posture vs morphine dependent mice receiving vehicle ([1]; 95% CI 3 to 7, 30 minute observation): 5 episodes
- less bouts of front paw shakes vs morphine dependent mice receiving vehicle ([1]; 95% CI 5 to 15): 10 bouts of front paw shakes/30 min
- development of morphine-induced antinociceptive tolerance ([2]; IB-MECA i.p. daily during 7 day s.c. morphine infusion, tail flick 30 min after acute morphine, day 3 and 6, n=2): blocked the development of morphine-induced antinociceptive tolerance
- effect on baseline tail flick latency ([2]; given alone daily over 6 days to rats that received saline infusion): had no effect on baseline tail flick latency
- solubility in EtOH [3]: soluble
- potentiation of antinociceptive responses to acute morphine [4]: did not potentiate the antinociceptive responses to acute morphine
- antinociception after acute morphine with IB-MECA pretreatment ([4]; at 30 min): 35+5 % antinociception
